Experimental findings from PubChem BioAssay (NCI) are described below.

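Where inhibition never reached the appropriate level, the endpoint shown equals the highest concentration tested. Otherwise, values were interpolated linearly from a five-concentration, 48-hour dose response in 96-well plates. TGI is the concentration that stops growth completely.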 Bounds are passed on as bounds.

Some test systems named below: A549 NSCLC; HL-60(TB) leukemia; HT29 colon; MOLT-4 leukemia; NCI-H226 lung; NCI-H23 lung; NCI-H460 lung; NCI/ADR-RES ovarian; SNB-75 CNS; T-47D breast.
What all share (experiment): NCI anticancer screen, dose series, 48 h

As for `O=C(NN1C(=O)/C(=C/c2ccc(Cl)cc2)N=C1c1ccccc1)c1c(Cl)c(Cl)c(Cl)c(Cl)c1-c1nc2ccccc2[nH]1`, the TGI is over 100 µM in the assay with A549 NSCLC; 50.5 µM in the assay with HL-60(TB) leukemia; over 100 µM in the assay with HT29 colon; over 100 µM in the assay with MOLT-4 leukemia; 68.2 µM with NCI-H226 lung; 34.9 µM with NCI-H23 lung. Moreover, the TGI in the assay with NCI-H460 lung is 16.2 µM; in the assay on NCI/ADR-RES ovarian, 42.2 µM; with SNB-75 CNS, 52.6 µM; in the assay on T-47D breast it was 9.72 µM.

`O=c1c2c([nH]c3nccn13)CCCC2`: the TGI in the assay with A549 NSCLC, with HL-60(TB) leukemia, in the assay on HT29 colon, with MOLT-4 leukemia, with NCI-H226 lung and in the assay on NCI-H23 lung was over 10 µM in each case. Moreover, the TGI with NCI-H460 lung, in the assay with NCI/ADR-RES ovarian, with SNB-75 CNS and in the assay with T-47D breast was over 10 µM each time.

`C=C1C(C2(C)C=CC(=O)OC3(C)COC(=O)CC32)C(OC=O)C(OC(=O)C(O)C(C)CC)C2(C)C(c3ccoc3)CC(OC(C)=O)C12O` (stereo not given): the TGI in the assay on A549 NSCLC is over 100 µM; in the assay on HL-60(TB) leukemia it was 9.41 µM; with HT29 colon, over 100 µM; in the assay with MOLT-4 leukemia it was over 100 µM; in the assay with NCI-H226 lung, over 100 µM; in the assay with NCI-H23 lung, over 100 µM. Besides, the TGI in the assay on NCI-H460 lung, with NCI/ADR-RES ovarian, in the assay on SNB-75 CNS and in the assay on T-47D breast was over 100 µM in each case.

`COc1ccc(/C=c2/[nH]c(=O)/c(=C\c3ccc(OCc4ccccc4)cn3)[nH]c2=O)cc1`: the TGI in the assay on A549 NSCLC, in the assay with HL-60(TB) leukemia, in the assay with HT29 colon, with MOLT-4 leukemia, with NCI-H226 lung and with NCI-H23 lung was over 100 µM throughout. The TGI was over 100 µM with NCI-H460 lung, over 100 µM in the assay with NCI/ADR-RES ovarian, 61 µM in the assay with SNB-75 CNS and over 100 µM with T-47D breast.
